Laboratory results: patent US20220395481A1, “BACTERIOSTATIC COMPOSITION, PREPARATION METHOD THEREFOR, AND USE THEREOF” (SHENZHEN EULIKAN BIOTECHNOLOGY CO., LTD, priority 2020, published 2022)
Where two headings read alike, the source gives them in different places.

Columns and labels:
[1] = system: Candida albicans ATCC 10231; assay: Inhibition rate after 20 minutes of action, Appendix C of GB 15979-2002; type: cell-based
Excerpt: “Inhibition rate” is the inhibition rate of bacteriostatic agents against Escherichia coli, Staphylococcus aureus, Candida albicans, or other microorganisms obtained by referring to the test methods and judgment criteria in Appendix C of GB 15979-2002 Hygienic Standard for Disposable Sanitary Products.
“Bacteriostatic effect” refers to the inhibition of bacteria, fungi, or other microorganisms by bacteriostatic agents.
The percentage concentration of each ingredient therein was the weight percentage concentration % (w/w), and the pH value of each group was 3.8.
The percentage concentration of each ingredient therein was the weight percentage concentration % (w/w), and the pH value of each group was 4.0.
According to the method described in Appendix C of GB 15979-2002 Hygienic Standard for Disposable Sanitary Products, aqueous solutions containing different ingredients were studied for their bacteriostatic effects of 20 minutes of action against Candida albicans ATCC 10231, the percentage concentration of each ingredient therein was the weight percentage concentration % (w/w), and the pH value of each group was 3.9. […]

[2] = system: lactobacilli; details: cited from earlier work

Row | SMILES | influence on the bacteriostatic effect of the solution containing 0.14% malic acid, 1.46% adipic acid, 0.20% sodium benzoate, 1.67% propionic acid, and 0.40% phenethyl alcohol against Candida albicans ([1]; text on Table 26, pH 4.0, Group 1 compared to Group 2) | growth of lactobacilli ([2]; concentration 0.40% (w/v)) | growth of lactobacilli ([2]; concentration 0.50% (w/v)) | growth of lactobacilli ([2]; concentration 0.70% (w/v)) | Inhibition rate ([1]; Table 12, single ingredient solutions, pH 3.8, 20 minutes of action) [%]
1 | N[C@@H](CCC(=O)O)C(=O)O [0.55% glutamic acid, glutamic acid] | did not affect the bacteriostatic effect |  |  |  | 
2 | CCC(=O)[O-].[Na+] [sodium propionate] |  | not significantly inhibited | not significantly inhibited | inhibited | 
3 | OCCc1ccccc1 [phenethyl alcohol, phenethyl alcohol (2-phenylethanol)] |  | not significantly inhibited | inhibited |  | 
4 | O=C([O-])c1ccccc1.[Na+] [0.25% sodium benzoate, sodium benzoate] |  |  |  |  | 3.73
